Data as given in ChEMBL document CHEMBL3885861, “Open TG-GATES”.

Species on record: Rattus norvegicus
Test: Open TG-GATES - Regimen: Single
Assay type: toxicity, organism-based, Sprague-Dawley
Parameters: regimen Single, gender Male, age 6 weeks
Conditions: in vivo, po, route gavage; for APTT / Bas / Eos / Fbg / Hb / Ht / Lym / MCH / MCHC / MCV / Mono / Neu / PT / Plat / RBC / Ret / WBC: tissue Blood; for KIDNEY_L / KIDNEY_R / KIDNEY_TOTAL: tissue Kidney; for LIVER: tissue Liver
[1] = 300 mg/kg, 3 h, dose level Middle
[2] = 300 mg/kg, 3 h, tissue Plasma, dose level Middle
[3] = 300 mg/kg, 6 h, dose level Middle
[4] = 300 mg/kg, 6 h, tissue Plasma, dose level Middle
[5] = 300 mg/kg, 9 h, dose level Middle
[6] = 300 mg/kg, 9 h, tissue Plasma, dose level Middle
[7] = 300 mg/kg, 24 h, dose level Middle
[8] = 300 mg/kg, 24 h, tissue Plasma, dose level Middle

For C[C@H](CS)C(=O)N1CCC[C@H]1C(=O)O [CAPTOPRIL], the gamma-GTP (100 mg/kg, 24 h, tissue Plasma, dose level Low) was 1 IU/L, the TERMINAL_BW [1] was 224.2 g and the APTT [1] was 16.3 s. For the same compound, the Bas [1] was 0%, the Eos [1] was 0.8% and the Fbg [1] was 204.8 mg/dL. It also gave a Hb [1] of 13.2 g/dL, a Ht [1] of 39.8% and a Lym [1] of 83.6%. It also gave an MCH [1] of 21.3 pg, an MCHC [1] of 33.2% and an MCV [1] of 64.1 fL. For the same compound, the Mono [1] was 5%, the Neu [1] was 10% and the PT [1] was 11.6 s. It also gave a Plat [1] of 117.4 x10_4/uL, an RBC [1] of 620.8 x10_4/ul and a Ret [1] of 6.6%. For the same compound, the WBC [1] was 125.4 x10_2/uL, the KIDNEY_L [1] was 1 g and the KIDNEY_R [1] was 1 g. The KIDNEY_TOTAL [1] was 2 g, the LIVER [1] was 11.2 g and the ALP [2] was 845.8 IU/L. It also gave an ALT [2] of 33.4 IU/L, an AST [2] of 61.8 IU/L and a BUN [2] of 17 mg/dL. It also gave a CRE [2] of 0.4 mg/dL, a DBIL [2] of 0.006 mg/dL and a GLC [2] of 209.4 mg/dL. For the same compound, the IP [2] was 9.3 mg/dL, the K [2] was 5 meq/L and the Na [2] was 138 meq/L. It also gave a PL [2] of 130 mg/dL, an RALB [2] of 3.7 g/dL and a TBIL [2] of 0.4 mg/dL. For the same compound, the TC [2] was 70.8 mg/dL, the TG [2] was 68.6 mg/dL and the TP [2] was 5.4 g/dL. It also gave a gamma-GTP [2] of 1.4 IU/L, a TERMINAL_BW [3] of 221.9 g and an APTT [3] of 16.4 s. For the same compound, the Bas [3] was 0%, the Eos [3] was 1.2% and the Hb [3] was 12.9 g/dL. For the same compound, the Ht [3] was 39%, the Lym [3] was 80% and the MCH [3] was 21 pg. It also gave an MCHC [3] of 33%, an MCV [3] of 63.5 fL and a Mono [3] of 6.6%. It also gave a Neu [3] of 12.2%, a PT [3] of 12.1 s and a Plat [3] of 116.7 x10_4/uL. It also gave an RBC [3] of 615 x10_4/ul, a Ret [3] of 8.2% and a WBC [3] of 113.8 x10_2/uL. It also gave a KIDNEY_L [3] of 1 g, a KIDNEY_R [3] of 1 g and a KIDNEY_TOTAL [3] of 2 g. It also gave an ALP [4] of 734.8 IU/L, an ALT [4] of 32 IU/L and an AST [4] of 55 IU/L. The BUN [4] was 21.8 mg/dL, the CRE [4] was 0.6 mg/dL and the DBIL [4] was 0.026 mg/dL. For the same compound, the GLC [4] was 197.4 mg/dL, the K [4] was 4.8 meq/L and the LDH [4] was 92.4 IU/L. For the same compound, the Na [4] was 139 meq/L, the PL [4] was 133.6 mg/dL and the RALB [4] was 3.5 g/dL. The TBIL [4] was 0.5 mg/dL, the TC [4] was 73.6 mg/dL and the TG [4] was 50.4 mg/dL. For the same compound, the TP [4] was 5.1 g/dL, the gamma-GTP [4] was 2 IU/L and the TERMINAL_BW [5] was 222.6 g. The APTT [5] was 15.9 s, the Bas [5] was 0% and the Eos [5] was 0.8%. It also gave a Fbg [5] of 204 mg/dL, a Hb [5] of 13 g/dL and a Ht [5] of 39.5%. For the same compound, the Lym [5] was 79.2%, the MCH [5] was 21.4 pg and the MCHC [5] was 32.8%. For the same compound, the MCV [5] was 65.4 fL, the Mono [5] was 4.8% and the Neu [5] was 15.2%. The PT [5] was 12.3 s, the RBC [5] was 604.2 x10_4/ul and the Ret [5] was 8.6%. For the same compound, the KIDNEY_L [5] was 1 g, the KIDNEY_R [5] was 1 g and the KIDNEY_TOTAL [5] was 2 g. For the same compound, the LIVER [5] was 9.4 g, the ALP [6] was 667 IU/L and the ALT [6] was 35.4 IU/L. The AST [6] was 55.8 IU/L, the BUN [6] was 16.8 mg/dL and the CRE [6] was 0.4 mg/dL. The DBIL [6] was 0.078 mg/dL, the GLC [6] was 208.6 mg/dL and the K [6] was 5 meq/L. For the same compound, the LDH [6] was 72.6 IU/L, the Na [6] was 139.6 meq/L and the PL [6] was 139.6 mg/dL. The RALB [6] was 3.7 g/dL, the TBIL [6] was 0.3 mg/dL and the TC [6] was 78.8 mg/dL. For the same compound, the TG [6] was 49 mg/dL, the TP [6] was 5.3 g/dL and the gamma-GTP [6] was 2 IU/L. For the same compound, the TERMINAL_BW [7] was 235.1 g, the APTT [7] was 16.5 s and the Bas [7] was 0%. It also gave an Eos [7] of 0.8%, a Hb [7] of 13.2 g/dL and a Ht [7] of 39.8%. For the same compound, the Lym [7] was 83.4%, the MCH [7] was 21.5 pg and the MCHC [7] was 33.2%. It also gave an MCV [7] of 64.8 fL, a Mono [7] of 5.2% and a Neu [7] of 10%. The PT [7] was 11.4 s, the Plat [7] was 118.6 x10_4/uL and the RBC [7] was 613.8 x10_4/ul. The Ret [7] was 8.6%, the KIDNEY_L [7] was 1 g and the KIDNEY_R [7] was 1 g. It also gave a KIDNEY_TOTAL [7] of 2.1 g, an LIVER [7] of 11.6 g and an ALT [8] of 37.6 IU/L. It also gave an AST [8] of 64.8 IU/L, a BUN [8] of 17.4 mg/dL and a CRE [8] of 0.6 mg/dL. The Ca [8] was 11.3 mg/dL, the DBIL [8] was 0.02 mg/dL and the GLC [8] was 189.6 mg/dL. For the same compound, the IP [8] was 8.5 mg/dL, the K [8] was 4.9 meq/L and the LDH [8] was 115.6 IU/L. The Na [8] was 138.8 meq/L, the PL [8] was 150.6 mg/dL and the RALB [8] was 4.1 g/dL. It also gave a TBIL [8] of 0.3 mg/dL, a TC [8] of 79.2 mg/dL and a TG [8] of 86 mg/dL. The TP [8] was 5.9 g/dL, the gamma-GTP [8] was 0.6 IU/L and the TERMINAL_BW (1000 mg/kg, 3 h, dose level High) was 222.3 g.
